# Measurements as given in patent US20180230160A1, “2-AMINO-7A-PHENYL-3,4,4A,5,7,7A-HEXAHYDROFURO[3,4-B]PYRIDINES AS BACE1 INHIBITORS” (H. Lundbeck A/S, priority 2015, published 2018).
# Assays:
# human BACE1 [1] = target: T1, human BACE1 (Homo sapiens, UniProt P56817); assay: BACE1 binding assay (SPA-based radioligand binding); parameters: biotin (biotinylated form); made in house; host or cells: Freestyle HEK293 cells; details: pH 4.5, 10 nM radioligand, Ki=IC50/(1+L/Kd)
# Procedure: The binding assay was performed as SPA-based assay using a biotinylated form of human BACE1 recombinantly expressed and subsequently purified from Freestyle HEK293 cells. The binding assay was run in a 50 mM sodium acetate buffer, pH 4.5 containing 50 mM NaCl and 0.03% Tween-20 in white clear bottom 384 plates (Corning #3653). 10 nM (final concentration) radioligand ([^3H]—N-((1S,2R)-1-benzyl-3-cyclopropylamino-2-hydroxy-propyl)-5-(methanesulfonyl-methyl-amino)-N—((R)-1-phenyl-ethyl)-isophthalamide) (TRQ11569 purchased from GE Healthcare) was mixed with test compound at a given concentration, 6 nM (final concentration) human BACE1 and 25 μg Streptavidin coated PVT core SPA beads (RPNQ0007, GE Healthcare Life Sciences) in a total volume of 40 μl. Several concentrations of each test compound were tested in the assay for […] determination. The plates were incubated for one hour at room temperature and counted in a Wallac Trilux counter. Total and non-specific binding were determined using buffer and 1 μM (final concentration) of the high affinity BACE1 reference inhibitor (S)-6-[3-chloro-5-(5-prop-1-ynyl-pyridin-3-yl)-thiophen-2-yl]-2-imino-3,6-dimethyl-tetrahydro-pyrimidin-4-one, respectively. For each test compound, a 1050 value (the concentration mediating 50% inhibition of the specific binding of the radioligand) was determined from concentration-response curve and used to calculate the Ki from the equation Ki=IC50/(1+L/Kd), where L and Kd are the final concentration of the radioligand used in the assay and the dissociation constant of the radioligand, respectively. The Kd of the radioligand was determined from saturation binding experiments.
# human BACE1 [2] = target: T1, human BACE1; assay: BACE1 efficacy assay (FRET-based, commercial BACE1 kit); assay type: biochemical; parameters: purchased Life Technologies P2985; details: 10 μM test compound
# Procedure: The efficacy assay was performed as a FRET-based assay using a commercially available BACE1 kit (Life Technologies, P2985). 2 μl test compound at 10 μM (final concentration) and 15 μl BACE1 enzyme from the kit (final concentration 3 nM) were preincubated for 15 minutes at room temperature before addition of 15 μl of substrate from the kit (250 nM final concentration) and incubated for additional 90 minutes at room temperature. The assay plate was subsequently read in a Pherastar (Ex540/Em590). The enzyme activity observed in presence of test compound were normalized to the enzyme activity observed in presence of buffer and 10 μM (final concentration) of the high affinity BACE1 reference inhibitor (S)-6-[3-Chloro-5-(5-prop-1-ynyl-pyridin-3-yl)-thiophen-2-yl]-2-imino-3,6-dimethyl-tetrahydropyrimidin-4-one, respectively. The efficacy of the test compounds was evaluated at 10 μM (final concentration) and defined as the percent inhibition of the enzyme activity using the equation % inhibition=100%−normalized enzyme activity in percent.
# P-gp (MDR1) = assay: MDCK-MDR1 assay (permeability, efflux ratio); assay type: in vitro ADME; details: dog, Papp BA/Papp AB, 60-minute incubation
# Procedure: The permeability of the test compounds was assessed in MDCK-MDR1 cells that were cultured to confluency (4-6 days) in a 96 transwell plate. Test compounds were diluted with the transport buffer (HBSS+1% BSA) to a concentration of 0.5 μM and applied to the apical or basolateral side of the cell monolayer. Permeation of the test compounds from A to B direction or B to A direction was determined in triplicate over a 60-minute incubation time at 37° C. and 5% CO2 with a relative humidity of 95%. Test compounds were quantified by LC-MS/MS analysis based on the peaks area ratios of analyte/IS in both the receiver and donor wells of the transwell plate. The apparent permeability coefficient Papp (cm/s) was calculated using the equation: […]
# Where dCr/dt is the cumulative concentration of compound in the receiver chamber as a function of time (μM/s); Vr is the solution volume in the receiver chamber (0.05 mL on the apical side; 0.25 mL on the basolateral side); A is the surface area for the transport, i.e. 0.0804 cm^2 for the area of the monolayer; CO is the initial concentration in the donor chamber (μM).
# T1 sequence (P56817 46-501): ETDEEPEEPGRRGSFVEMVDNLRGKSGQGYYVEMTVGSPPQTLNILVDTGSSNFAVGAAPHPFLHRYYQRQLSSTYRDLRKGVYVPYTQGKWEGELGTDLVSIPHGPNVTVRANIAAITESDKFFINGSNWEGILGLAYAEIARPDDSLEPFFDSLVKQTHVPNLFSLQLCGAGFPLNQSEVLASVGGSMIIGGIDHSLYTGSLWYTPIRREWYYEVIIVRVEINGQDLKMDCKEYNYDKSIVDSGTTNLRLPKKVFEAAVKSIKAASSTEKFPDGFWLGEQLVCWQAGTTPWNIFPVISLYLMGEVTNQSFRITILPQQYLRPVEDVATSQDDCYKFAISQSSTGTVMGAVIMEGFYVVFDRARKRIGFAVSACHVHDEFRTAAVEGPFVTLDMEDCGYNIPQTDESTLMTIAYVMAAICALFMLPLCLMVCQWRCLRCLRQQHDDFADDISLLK
SMILES,Ki (human BACE1 [1]) [nM],inhibition at 10 µM (human BACE1 [2]) [%],"efflux ratio at 60 min, 0.5 μM (P-gp (MDR1))"
"COc1cnc(C(=O)Nc2cc(F)c(F)c([C@]34COC[C@H]3C[C@@](F)(CF)C(N)=N4)c2)cn1 [Example 24, N-[3-[(3S,4aS,7aS)-2-amino-3-fluoro-3-(fluoromethyl)-4,4a,5,7-tetrahydrofuro[3,4-b]pyridin-7a-yl]-4,5-difluoro-phenyl]-5-methoxy-pyrazine-2-carboxamide]",130,103,0.82
"C[C@@]1(F)C[C@]2(F)COC[C@]2(c2cc(NC(=O)c3ccc(F)cn3)ccc2F)N=C1N [Example 12, N-(3-((3R,4aR,7aS)-2-amino-3,4a-difluoro-3-methyl-3,4,4a,5,7,7a-hexahydrofuro[3,4-b]pyridin-7a-yl)-4-fluorophenyl)-5-fluoropicolinamide]",24,103,1.67
"COc1ccc(C(=O)Nc2ccc(F)c([C@]34COC[C@H]3C[C@@](F)(CF)C(N)=N4)c2)nc1 [Example 21, N-(3-((3S,4aS,7aS)-2-amino-3-fluoro-3-(fluoromethyl)-3,4,4a,5,7,7a-hexahydrofuro[3,4-b]pyridin-7a-yl)-4-fluorophenyl)-5-methoxypicolinamide]",55,103,0.61
"COc1ccc(C(=O)Nc2ccc(F)c([C@]34COC[C@H]3C[C@](F)(CF)C(N)=N4)c2)nc1 [Example 15, N-(3-((3R,4aS,7aS)-2-amino-3-fluoro-3-(fluoromethyl)-3,4,4a,5-tetrahydrofuro[3,4-b]pyridin-7a-yl)-4-fluorophenyl)-5-methoxypicolinamide]",65,111,1.19
